Experimental data from ChEMBL document CHEMBL3243937, “Adriamycin analogues. 2. Synthesis of 13-deoxyanthracyclines” (1978).

Key:
P388 [1] = assay: Antitumor activity against mouse P388 cells allografted in mouse assessed as increase in survival time at 1.5 mg/kg, ip qd administered starting from day 1 to day 9 post challenge relative to control; type: functional; settings: route intraperitoneal
P388 [2] = assay: Antitumor activity against mouse P388 cells allografted in mouse assessed as increase in survival time at 8 mg/kg, ip qd administered starting from day 1 to day 9 post challenge relative to control; type: functional; settings: route intraperitoneal
P388 [3] = assay: Antitumor activity against mouse P388 cells allografted in mouse assessed as increase in survival time at 12 mg/kg, ip qd administered starting from day 1 to day 9 post challenge relative to control; type: functional; settings: route intraperitoneal
L1210 [4] = assay: Inhibition of RNA synthesis in mouse L1210 cells compound preincubated for 3 hrs followed by [3H]uridine addition measured after 1 hr by scintillation counting; type: functional
P388 [5] = assay: Antitumor activity against mouse P388 cells allografted in mouse assessed as increase in survival time at 5.3 mg/kg, ip qd administered starting from day 1 to day 9 post challenge relative to control; type: functional; settings: route intraperitoneal
P388 [6] = assay: Antitumor activity against mouse P388 cells allografted in mouse assessed as increase in survival time at 3.5 mg/kg, ip qd administered starting from day 1 to day 9 post challenge relative to control; type: functional; settings: route intraperitoneal
Calf thymus DNA = assay: Binding affinity to calf thymus DNA by spectral analysis; type: nucleic-acid assay; settings: Bos taurus
P388 [7] = assay: Antitumor activity against mouse P388 cells allografted in mouse assessed as increase in survival time at 4 mg/kg, ip qd administered starting from day 1 to day 9 post challenge relative to control; type: functional; settings: route intraperitoneal
L1210 [8] = assay: Inhibition of DNA synthesis in mouse L1210 cells compound preincubated for 3 hrs followed by [3H]thymidine addition measured after 1 hr by scintillation counting; type: functional
P388 [9] = assay: Antitumor activity against mouse P388 cells allografted in mouse assessed as increase in survival time at 1.56 mg/kg, ip qd administered starting from day 1 to day 9 post challenge relative to control; type: functional; settings: route intraperitoneal
P388 [10] = assay: Antitumor activity against mouse P388 cells allografted in mouse assessed as increase in survival time at 3.13 mg/kg, ip qd administered starting from day 1 to day 9 post challenge relative to control; type: functional; settings: route intraperitoneal
P388 [11] = assay: Antitumor activity against mouse P388 cells allografted in mouse assessed as increase in survival time at 0.78 mg/kg, ip qd administered starting from day 1 to day 9 post challenge relative to control; type: functional; settings: route intraperitoneal
P388 [12] = assay: Antitumor activity against mouse P388 cells allografted in mouse assessed as increase in survival time at 0.39 mg/kg, ip qd administered starting from day 1 to day 9 post challenge relative to control; type: functional; settings: route intraperitoneal
P388 [13] = assay: Antitumor activity against mouse P388 cells allografted in mouse assessed as increase in survival time at 6.25 mg/kg, ip qd administered starting from day 1 to day 9 post challenge relative to control; type: functional; settings: route intraperitoneal
P388 [14] = assay: Antitumor activity against mouse P388 cells allografted in mouse assessed as increase in survival time at 16 mg/kg, ip qd administered starting on day 5,9 and 13 post challenge relative to control; type: functional; settings: route intraperitoneal
P388 [15] = assay: Antitumor activity against mouse P388 cells allografted in mouse assessed as increase in survival time at 8 mg/kg, ip qd administered starting on day 5,9 and 13 post challenge relative to control; type: functional; settings: route intraperitoneal
P388 [16] = assay: Antitumor activity against mouse P388 cells allografted in mouse assessed as increase in survival time at 0.20 mg/kg, ip qd administered starting from day 1 to day 9 post challenge relative to control; type: functional; settings: dose 0.2 mg/kg; route intraperitoneal
P388 [17] = assay: Antitumor activity against mouse P388 cells allografted in mouse assessed as increase in survival time at 4 mg/kg, ip qd administered starting on day 5,9 and 13 post challenge relative to control; type: functional; settings: route intraperitoneal
P388 [18] = assay: Antitumor activity against mouse P388 cells allografted in mouse assessed as increase in survival time at 1 mg/kg, ip qd administered starting on day 5,9 and 13 post challenge relative to control; type: functional; settings: route intraperitoneal
P388 [19] = assay: Antitumor activity against mouse P388 cells allografted in mouse assessed as increase in survival time at 2 mg/kg, ip qd administered starting on day 5,9 and 13 post challenge relative to control; type: functional; settings: route intraperitoneal

SMILES | T/C (P388 [1]) [%] | T/C (P388 [2]) [%] | T/C (P388 [3]) [%] | IC50 (L1210 [4]) [nM] | T/C (P388 [5]) [%] | T/C (P388 [6]) [%] | ΔTm (Calf thymus DNA) [°C] | T/C (P388 [7]) [%] | IC50 (L1210 [8]) [nM] | T/C (P388 [9]) [%] | T/C (P388 [10]) [%] | T/C (P388 [11]) [%] | T/C (P388 [12]) [%] | T/C (P388 [13]) [%] | T/C (P388 [14]) [%] | T/C (P388 [15]) [%] | T/C (P388 [16]) [%] | T/C (P388 [17]) [%] | T/C (P388 [18]) [%] | T/C (P388 [19]) [%]
CC[C@@]1(O)C[C@H](O[C@H]2C[C@H](N)[C@H](O)[C@H](C)O2)c2c(O)c3c(c(O)c2[C@H]1C(=O)OC)C(=O)c1cccc(O)c1C3=O.Cl | 127 | 140 | 141 | 2600 | 139 | 130 | 7.6 | 132 | 5600 | – | – | – | – | – | – | – | – | – | – | –
CC[C@]1(O)Cc2c(O)c3c(c(O)c2[C@@H](O[C@H]2C[C@H](N)[C@H](O)[C@H](C)O2)C1)C(=O)c1c(OC)cccc1C3=O | – | – | – | 840 | – | – | 50 | – | 1300 | 160 | 160 | 134 | 140 | – | – | – | – | – | – | –
COc1cccc2c1C(=O)c1c(O)c3c(c(O)c1C2=O)C[C@@](O)(CCO)C[C@@H]3O[C@H]1C[C@H](N)[C@H](O)[C@H](C)O1 [13-DEOXYDOXORUBICIN] | – | – | – | 1100 | – | – | 6.15 | – | 1800 | 156 | 164 | 161 | 140 | 153 | – | – | – | – | – | –
COc1cccc2c1C(=O)c1c(O)c3c(c(O)c1C2=O)C[C@@](O)(C(C)=O)C[C@@H]3O[C@H]1C[C@H](N)[C@H](O)[C@H](C)O1 [DAUNORUBICIN] | – | – | – | 330 | – | – | – | – | 660 | 148 | – | 167 | 153 | – | 127 | 134 | 144 | 131 | – | –
COc1cccc2c1C(=O)c1c(O)c3c(c(O)c1C2=O)C[C@@](O)(C(=O)CO)C[C@@H]3O[C@H]1C[C@H](N)[C@H](O)[C@H](C)O1 [DOXORUBICIN] | – | – | – | 580 | – | – | 13.4 | – | 1500 | 176 | – | 197 | 174 | – | 130 | 157 | 160 | 142 | 133 | 133
